Test results as given in patent US12612388B2, “Receptor-interacting protein 1 inhibitors including piperazine heterocyclic amide ureas” (SIRONAX LTD., priority 2020, dated 2026).

tested on: HT-29 cells; test: Cellular RIP1 inhibitory activity: necroptosis of HT-29 cells induced by TNF-α/SMAC mimetic/zVAD-FMK, CellTiter-Glo viability; assay type: cell-based; conditions: Homo sapiens, HT-29, 20 h, read-out: EC50 (Cell activity; Necrosis or Necroptosis Inhibitory Activity)
Method: In Table 2, activity is provided as follows: +++=0.1 nM≤EC50<100 nM; ++=100 nM≤EC50K<1000 nM; +=1000 nM≤EC50K<10000 nM.
Compounds 1-67 (denoted as Compound Nos. 1 through 67 in Table 1) of the disclosure were tested for binding and cellular RIP1 inhibitory activity following the experimental procedures described below.
Cell line: HT-29 (ATCC® HTB-38™)
Culture medium: McCOY's 5A, Gibco, Cat No. 16600-082
DMSO: Sigma, Cat No. 67-68-5, 1 L
Assay plate: Corning #3903
Compound dilution plate: Corning #3357
Inducers: TNFα, GenScript, Cat No. Z01001-50,
SmacM, Cat. No., HY-15989, MedChemExpress (MCE)
Z_VAD FMK, TargetMol, T6013
Cell Titer-Glo® Luminescent Cell Viability Assay Kit: Promega, Cat No. G7573
1. HT-29 cells were checked every day to make sure that they were healthy and growing as expected. They were subjected to sub-culturing when they were approximately 80% confluent.
2. The culture medium, McCOY's 5A medium (Gibco, Cat No. 16600-082) with 10% fetal bovine serum or FBS (Gibco, Cat No. 10099-141C), was pre-warmed in a 37° C. water bath for at least 30 min.
3. When the cells had reached a desired level of confluency of 80% in a T75 flask, the medium was aspirated, and the cells were washed with warm phosphate buffered saline or PBS two times.
4. 2-3 ml fresh warm trypsin (Gibco, Cat No. 25200-056) solution was added to the washed cells. The flask with the cells was transferred to a 37° C. incubator.
5. After 5 minutes, the side of the flask was tapped, and the flask was examined under a microscope for detachment of the cells to the flask. If necessary, the cells were kept in the incubator for an additional 5-10 minutes, with occasional tapping, until lifting was complete.
6. The trypsin reaction was neutralized by transferring 6-9 ml cell culture medium to sterile 15 ml conical tubes, and by centrifuging the cell culture at 300×g for 7 minutes to pellet the cells (supernatant decanted).
7. The cells were resuspended in fresh cell culture medium and the cell counting was performed using a hemocytometer.
8. 100 μl of the resuspended cell culture medium containing ˜5,000 cells were transferred into each well of the sterile 96-well cell culture plate (Corning 3903) and cultured overnight at 37° C. with 5% CO2.
Compound Titration and Treatment
1. All test compounds were dissolved in DMSO (Dimethyl sulfoxide) to create a 20 mM stock.
2. 3 μl of each compound 20 mM stock was mixed with 27 μl DMSO, and the compound solution was further diluted at a titration ratio of 1:3 (20 μl compound solution+40 μl DMSO) till the 10 points end.
3. All culture medium was removed from assay plates filled with HT-29 cell cultures. The cells were then washed with 1 PBS, and resuspended in fresh, FBS-free McCOY's 5A medium containing a cocktail of TNF-α (10 ng/ml), a SMAC mimetic compound (6 μM) and Z-VAD-fluoromethylketone or zVAD-FMK (10 μM) to stimulate the HT-29 cells to increase RIP1 kinase levels and necroptosis.
4. 0.5 μL of the diluted compound solution was added to the corresponding 96-well assay plates.
5. The assay plates were incubated for 20 hours at 37° C. with 5% CO2.
1. The CellTiter-Glo® Luminescent Cell Viability Assay was employed to detect the ATP levels of viable HT-29 cells.
2. The CellTiter-Glo® buffer and the lyophilized substrate were equilibrated to room temperature prior to use.
3. The CellTiter-Glo® substrate was resuspended with CellTiter-Glo® buffer, then mixed by gently vortexing to obtain a homogeneous solution.
4. 20 μl the enzyme/substrate mixture was transferred by multi-channel pipetting into 96-well assay plates.
5. The assay plates were placed on an orbital shaker and the contents were shaken for 3 minutes to induce cell lysis.
6. The assay plates were incubated at room temperature for 10 minutes to stabilize the luminescent signal.
7. The luminescence signals were read and recorded with EnVision.
8. The geometric mean EC50 values were calculated from 10 points response dose with duplicates. […]

Compound	EC50 [µM]
O=C(c1nc(N2CCN(C(=O)N3N=CC[C@H]3c3cc(F)cc(F)c3)CC2)ncc1F)N1CCC1 [Compound 7, (S)-azetidin-1-yl(2-(4-(5-(3,5-difluorophenyl)-4,5-dihydro-1H-pyrazole-1-carbonyl)piperazin-1-yl)-5-fluoropyrimidin-4-yl)methanone]	0.0001 to 0.1

same assay, conditions: Homo sapiens; HT-29 cells; TNF-α 10 ng/ml, SMAC mimetic 6 μM, zVAD-FMK 10 μM; 20 hours; geometric mean, 10 points, duplicates; read-out: EC50 (Cell activity; Necrosis or Necroptosis Inhibitory Activity)

Compound	EC50 [µM]
O=C(c1nc(N2CCN(C(=O)N3N=CC[C@H]3c3cc(F)cc(F)c3)CC2)ncc1F)N1CC(OC(F)(F)F)C1 [Compound 60, (S)-(5-(3,5-difluorophenyl)-4,5-dihydro-1H-pyrazol-1-yl)(4-(5-fluoro-4-(3-(trifluoromethoxy)azetidine-1-carbonyl)pyrimidin-2-yl)piperazin-1-yl)methanone]	0.0001 to 0.1
O=C(NCCN1CCOCC1)c1ccnc(N2CCN(C(=O)N3N=CC[C@H]3c3cc(F)cc(F)c3)CC2)n1 [Compound 45, (S)-2-(4-(5-(3,5-difluorophenyl)-4,5-dihydro-1H-pyrazole-1-carbonyl)piperazin-1-yl)-N-(2-morpholinoethyl)pyrimidine-4-carboxamide]	0.1 to 1
N#Cc1cc(F)cc([C@@H]2CC=NN2C(=O)N2CCN(c3nccc(C(N)=O)n3)CC2)c1 [Compound 42, (S)-2-(4-(5-(3-cyano-5-fluorophenyl)-4,5-dihydro-1H-pyrazole-1-carbonyl)piperazin-1-yl)pyrimidine-4-carboxamide]	0.0001 to 0.1
N#Cc1cc(F)cc([C@@H]2CC=NN2C(=O)N2CCN(c3ncc(F)c(C(=O)N4CC(C#N)C4)n3)CC2)c1 [Compound 54, (S)-1-(2-(4-(5-(3-cyano-5-fluorophenyl)-4,5-dihydro-1H-pyrazole-1-carbonyl)piperazin-1-yl)-5-fluoropyrimidine-4-carbonyl)azetidine-3-carbonitrile]	0.0001 to 0.1
COC1CN(C(=O)c2nc(N3CCN(C(=O)N4N=CC[C@H]4c4cncc(F)c4)CC3)ncc2F)C1 [Compound 52, (S)-(5-fluoro-2-(4-(5-(5-fluoropyridin-3-yl)-4,5-dihydro-1H-pyrazole-1-carbonyl)piperazin-1-yl)pyrimidin-4-yl)(3-methoxyazetidin-1-yl)methanone]	0.0001 to 0.1
NC(=O)[C@@H]1CCN(C(=O)c2nc(N3CCN(C(=O)N4N=CC[C@H]4c4cc(F)cc(F)c4)CC3)ncc2F)C1 [Compound 27, (R)-1-(2-(4-((S)-5-(3,5-difluorophenyl)-4,5-dihydro-1H-pyrazole-1-carbonyl)piperazin-1-yl)-5-fluoropyrimidine-4-carbonyl)pyrrolidine-3-carboxamide]	0.0001 to 0.1
COc1cnc(N2CCN(C(=O)N3N=CC[C@H]3c3cc(F)cc(F)c3)CC2)nc1C(N)=O [Compound 62, (S)-2-(4-(5-(3,5-difluorophenyl)-4,5-dihydro-1H-pyrazole-1-carbonyl)piperazin-1-yl)-5-methoxypyrimidine-4-carboxamide]	0.1 to 1
CONC(=O)c1nc(N2CCN(C(=O)N3N=CC[C@H]3c3cc(F)cc(F)c3)CC2)ncc1F [Compound 3, (S)-2-(4-(5-(3,5-difluorophenyl)-4,5-dihydro-1H-pyrazole-1-carbonyl)piperazin-1-yl)-5-fluoro-N-methoxypyrimidine-4-carboxamide]	0.1 to 1
CC(C)OC1CN(C(=O)c2ccnc(N3CCN(C(=O)N4N=CC[C@H]4c4cc(F)cc(F)c4)CC3)n2)C1 [Compound 37, (S)-(5-(3,5-difluorophenyl)-4,5-dihydro-1H-pyrazol-1-yl)(4-(4-(3-isopropoxyazetidine-1-carbonyl)pyrimidin-2-yl)piperazin-1-yl)methanone]	0.0001 to 0.1
O=C(c1nc(N2CCN(C(=O)N3N=CC[C@H]3c3cc(F)cc(F)c3)CC2)ncc1F)N1CC(CN2CCCC2)C1 [Compound 10, (5-(3,5-difluorophenyl)-4,5-dihydro-1H-pyrazol-1-yl)(4-(5-fluoro-4-(3-(pyrrolidin-1-ylmethyl)azetidine-1-carbonyl)pyrimidin-2-yl)piperazin-1-yl)methanone]	0.0001 to 0.1
COC1CN(C(=O)c2nc(N3CCN(C(=O)N4N=CCC4c4cncc(Cl)c4)CC3)ncc2F)C1 (stereo not drawn) [Compound 66, (5-(5-chloropyridin-3-yl)-4,5-dihydro-1H-pyrazol-1-yl)(4-(5-fluoro-4-(3-methoxyazetidine-1-carbonyl)pyrimidin-2-yl)piperazin-1-yl)methanone]	0.0001 to 0.1
O=C(c1nc(N2CCN(C(=O)N3N=CC[C@H]3c3cc(F)cc(F)c3)CC2)ncc1F)N1CC=CC1 [Compound 61, (S)-(5-(3,5-difluorophenyl)-4,5-dihydro-1H-pyrazol-1-yl)(4-(4-(2,5-dihydro-1H-pyrrole-1-carbonyl)-5-fluoropyrimidin-2-yl)piperazin-1-yl)methanone]	0.0001 to 0.1
O=C(c1nc(N2CCN(C(=O)N3N=CC[C@H]3c3cc(F)cc(F)c3)CC2)ncc1F)N1CC2(COC2)C1 [Compound 14, (5-(3,5-difluorophenyl)-4,5-dihydro-1H-pyrazol-1-yl)(4-(5-fluoro-4-(2-oxa-6-azaspiro[3.3]heptane-6-carbonyl)pyrimidin-2-yl)piperazin-1-yl)methanone]	0.0001 to 0.1
O=C(O)c1nc(N2CCN(C(=O)N3N=CC[C@H]3c3cc(F)cc(F)c3)CC2)ncc1F [Compound 1, (S)-2-(4-(5-(3,5-difluorophenyl)-4,5-dihydro-1H-pyrazole-1-carbonyl)piperazin-1-yl)-5-fluoropyrimidine-4-carboxylic acid]	1 to 10
CNC(=O)c1nc(N2CCN(C(=O)N3N=CC[C@H]3c3cc(F)cc(F)c3)CC2)ncc1F [Compound 4]	0.0001 to 0.1
CN(C)CC1CN(C(=O)c2nc(N3CCN(C(=O)N4N=CC[C@H]4c4cc(F)cc(F)c4)CC3)ncc2F)C1 [Compound 28, (S)-(5-(3,5-difluorophenyl)-4,5-dihydro-1H-pyrazol-1-yl)(4-(4-(3-((dimethylamino)methyl)azetidine-1-carbonyl)-5-fluoropyrimidin-2-yl)piperazin-1-yl) methanone]	0.0001 to 0.1
CNC(=O)c1ccnc(N2CCN(C(=O)N3N=CC[C@H]3c3cc(F)cc(F)c3)CC2)n1 [Compound 46, (S)-2-(4-(5-(3,5-difluorophenyl)-4,5-dihydro-1H-pyrazole-1-carbonyl)piperazin-1-yl)-N-methylpyrimidine-4-carboxamide]	0.0001 to 0.1
CN(C)[C@H]1CCN(C(=O)c2nc(N3CCN(C(=O)N4N=CC[C@H]4c4cc(F)cc(F)c4)CC3)ncc2F)C1 [Compound 31, ((S)-5-(3,5-difluorophenyl)-4,5-dihydro-1H-pyrazol-1-yl)(4-(4-((S)-3-(dimethylamino)pyrrolidine-1-carbonyl)-5-fluoropyrimidin-2-yl)piperazin-1-yl)methanone]	0.0001 to 0.1
CN1CCN(C(=O)c2nc(N3CCN(C(=O)N4N=CC[C@H]4c4cc(F)cc(F)c4)CC3)ncc2F)CC1 [Compound 19, (5-(3,5-difluorophenyl)-4,5-dihydro-1H-pyrazol-1-yl)(4-(5-fluoro-4-(4-methylpiperazine-1-carbonyl)pyrimidin-2-yl)piperazin-1-yl)methanone]	0.0001 to 0.1
CN(C)[C@@H]1CCN(C(=O)c2nc(N3CCN(C(=O)N4N=CC[C@H]4c4cc(F)cc(F)c4)CC3)ncc2F)C1 [Compound 32, ((S)-5-(3,5-difluorophenyl)-4,5-dihydro-1H-pyrazol-1-yl)(4-(4-((R)-3-(dimethylamino)pyrrolidine-1-carbonyl)-5-fluoropyrimidin-2-yl)piperazin-1-yl)methanone]	0.0001 to 0.1
